According to patent US11351178B2, “Selective HDAC6 inhibitors” (ITALFARMACO S.P.A., priority 2017, dated 2022):
pIC50: −log10 of the molar value. Read-outs that look alike come from different tables or passages of the source.

Legend:
human PBMCs = assay: Mixed Lymphocytes Reaction (MLR) with human PBMCs (IFN-γ, TNF-α, IL-6); assay type: cell-based; conditions: PBMC, 144 h, two-way MLR, 6 days, negative = induction; for inhibition at […]: 0.25 μM
Experimental: In order to study HDAC6 inhibitors ability to inhibit the activation of allogenic T CD4+ cells, a Mixed Lymphocytes Reaction (MLR or mixed lymphocyte culture, CLM) assay was performed. This is a reaction involving blast transformation of in vitro cultured lymphocytes in the presence of allogeneic lymphocytes. There is the so-called “two-way” reaction wherein the two lymphocyte populations stimulate each other to proliferate, and the so-called “one way” reaction, wherein the proliferation of one of the two populations is inhibited by mitomycin C or irradiation, these cells provide proliferation stimulus (stimulator) to the so-called “responder” cells.
Human peripheral blood mononuclear cells (PBMCs) used in MLR were obtained by Ficoll gradient separation from Buffy Coat of healthy donors.
We used a two-way MLR. The cells from the two donors were plated at 1:1 ratio (allogenic stimulation) to the final concentration of 2×10^5 per well in U-bottom 96 well plates in RPMI 1640 medium with 10% FBS and antibiotics. As a control we individually plated the cells from each donor (singenic stimulus). The experiment for each inhibitor was set in deduplicate for allogeneic stimuli and in quintuplicate for singenic stimuli. The cells were cultured for 6 days in an incubator at 37° C.
After 6 days the effect of the test compounds was evaluated by measuring the production of pro-inflammatory cytokines recognized to be characteristics of this assay.
For this purpose, the culture supernatant was harvested and used for IFN-γ, TNF-α and IL-6 inflammatory cytokine assay.
The JAK inhibitor ruxolitinib was used as the active reference compound in the test.
Values in the table indicate the inhibition percentages. Negative values indicate an induction.

HDAC9 = target: T1, HDAC9 (Homo sapiens, UniProt Q9UKV0); assay: Enzymatic test HDAC9; assay type: biochemical; conditions: Table 3
T1 construct: purchased BPS 50009
Experimental: After a period of incubation at 30° C. (incubation times vary for different isoforms and are shown in table 1) 25 μL of solution containing the substrate were added. As substrate, FLUOR DE LYS® deacetylase substrate (Enzo Life Sciences, cat #BML-K1104, FdL), FLUOR DE LYS®-Green substrate (Enzo Life Sciences, cat #BML-K1572 FdL_G) and trifluoroacetyl-L-lysine (Tfal)-2× concentrated solution in 25 mM Tris-HCl, pH 8, 130 mM NaCl 0.05% Tween-20 10% glycerol) were used. Following a reaction period at 30° C.

[1] = tested on: regulatory T cell (Treg, CD4+CD25+) suppression activity; assay: T CD4 lymphocyte proliferation mediated by mouse regulatory T cells suppression assay; assay type: cell-based
Experimental: To evaluate the ability of the molecules under this patent to increase regulatory T cell (Treg, CD4^+CD25^+) suppression activity a T-cell (responder T cells, Teff) proliferation suppression assay was used. Treg cells at different concentrations were cultured with Teff cells (CD4^+CD25^−) in the presence of proliferative stimuli. T cells need of two stimuli to proliferate: the first given by the recognition of antigen associated with MHC by T cell receptor (TCR) and the second one derived from co-stimulatory molecules such as CD28. In the absence of a specific antigen, TCR activation can take place with an antibody recognizing one of the composing subunits, CD3ε. In this assay, anti-CD3ε monoclonal antibody and CD4 T cell depleted splenocytes were used as activator stimuli. Therefore, the ability to reduce Teff cells proliferation by Tregs in the presence or absence of HDAC6 inhibitors was assessed.
Treg and Teff cells were separated using the Treg isolation kit based on magnetic beads separation technique (Miltenyi Biotec) through an initial negative selection and a final positive selection process.
Single cell suspension was obtained from spleen of C57BL/6 mice using a 70 μm strainer.
Cell suspension was treated with ACK buffer to lyse red blood cells and then centrifuged for 5 minutes at 300×g. After centrifugation, the cells were resuspended in PBS (Phosphate Buffered Saline, Gibco) and counted. Subsequently, splenocytes were resuspended in a buffer consisting of PBS, 0.5% BSA and 2 mM EDTA.
To proceed with the first step of Treg separation, CD4 negative cells were indirectly magnetically labeled with a cocktail of biotin-conjugated antibodies against CD8a, CD11b, CD45R, CD49b, Ter-119 and Anti-Biotin MicroBeads CD4+ cells were thus obtained by negative selection as flow-through of a magnetic MACS column.
Cells bound to microbeads were eluted and conserved for their use as antigen presenting cells (APC) in the proliferation assay.
In the second step of Treg purification, pre-enriched CD4+ cells were labelled with an R-phycoerythrin (PE)-conjugated anti-CD25 antibody that preferentially binds to Treg cells and magnetic beads coupled with an anti PE antibody. The cell suspension was then loaded on a column. The Teff cells pass through the column without binding (negative selection), while beads-bound Treg cells adhere through the magnetic beads (positive selection). Treg cells were then eluted from the column by buffer flow using a plunger. Treg and Teff cell purification is summarized in FIG. 6. • CD4− cells from first positive selection as APC • Treg CD4+ CD25+ as suppressor cells • Teff CD4+ CD25− as responder/proliferating cells
CD4^− cells were treated with mitomycin C (50 μg/ml, Sigma) for 30 min at 37° C. to prevent their proliferation They were then resuspended at a concentration of 4.0×10^5/50 μl in complete medium (RPMI, FBS10%, penicillin/streptomycin 1×, 50 μM beta mercaptoethanol). Teffs were labeled with carboxy fluorescein succinimidyl ester (CFSE) at a concentration of 2 μM in PBS at 37° C., and after 10 minutes incubation, the reaction was blocked with a 10% FBS PBS solution. CFSE labelling allows covalent modification of Teff cell to analyse their proliferation by fluorescence dilution. The labelled Teffs were then centrifuged and resuspended at the final concentration of 5.0×10^4/50 μl in complete medium. Finally, the Tregs obtained by purification were diluted to the final concentration of 5.0×10^4/50 μl in complete medium.
Then a co-culture of Teff (5.0×10^4), T CD4^− (4.0×10^5) was prepared and Treg cells in different ratios (1:1, 1:2, 1:4, 1:8 ratio Teff to Treg cells) were added thereto. The test compounds at different concentrations or DMSO vehicle were added to the cell suspension. Finally, an anti-CD3ε monoclonal antibody (Miltenyi Biotec) was added at a concentration of 1 μg/ml. Cells were plated in flat bottom 96-well plates and each condition was set up in a technical duplicate. […]

[2] = read-out: MLR IFN-γ inhibition percentage
[3] = read-out: MLR IL-6 inhibition percentage
[4] = read-out: MLR TNF-α inhibition percentage

T1 sequence (Q9UKV0 1-1066 isoform Q9UKV0-5): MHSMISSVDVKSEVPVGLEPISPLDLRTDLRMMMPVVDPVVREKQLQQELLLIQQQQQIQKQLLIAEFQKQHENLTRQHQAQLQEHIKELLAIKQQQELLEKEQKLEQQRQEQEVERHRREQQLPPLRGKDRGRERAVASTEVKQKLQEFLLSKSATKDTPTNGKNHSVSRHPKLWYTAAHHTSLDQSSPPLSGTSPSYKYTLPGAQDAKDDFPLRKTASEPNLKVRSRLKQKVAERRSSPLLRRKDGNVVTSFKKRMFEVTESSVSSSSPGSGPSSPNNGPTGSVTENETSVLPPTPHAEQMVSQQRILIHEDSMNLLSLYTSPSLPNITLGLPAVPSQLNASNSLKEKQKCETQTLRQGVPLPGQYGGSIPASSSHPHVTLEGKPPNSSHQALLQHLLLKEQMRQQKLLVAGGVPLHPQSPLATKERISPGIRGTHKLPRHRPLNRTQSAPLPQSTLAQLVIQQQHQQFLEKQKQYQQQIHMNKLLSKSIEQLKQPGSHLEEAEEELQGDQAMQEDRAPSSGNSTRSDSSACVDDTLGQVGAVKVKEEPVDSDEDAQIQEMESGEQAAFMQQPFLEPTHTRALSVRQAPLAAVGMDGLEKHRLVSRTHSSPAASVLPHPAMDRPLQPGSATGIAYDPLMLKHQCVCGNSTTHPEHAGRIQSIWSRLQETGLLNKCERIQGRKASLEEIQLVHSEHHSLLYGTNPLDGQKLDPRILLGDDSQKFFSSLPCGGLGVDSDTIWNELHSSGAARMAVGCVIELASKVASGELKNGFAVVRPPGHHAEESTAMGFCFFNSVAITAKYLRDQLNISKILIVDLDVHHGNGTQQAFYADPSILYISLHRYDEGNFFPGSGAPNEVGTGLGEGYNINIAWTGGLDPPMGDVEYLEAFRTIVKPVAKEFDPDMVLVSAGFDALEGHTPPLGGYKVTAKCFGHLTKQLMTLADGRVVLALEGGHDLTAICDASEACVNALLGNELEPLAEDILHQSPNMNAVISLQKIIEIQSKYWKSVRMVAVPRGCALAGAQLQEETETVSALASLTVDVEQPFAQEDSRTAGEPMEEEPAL

Row | pIC50 (HDAC9) | Structure (SMILES) | inhibition at 1 µM (human PBMCs; [2]) [%] | inhibition at 1 µM (human PBMCs; [3]) [%] | inhibition at 1 µM (human PBMCs; [4]) [%] | also measured
1 |  | O=C(NO)c1ccc(Cn2nnnc2-c2cccs2)cc1 [comp. 8, N-hydroxy-4-((5-(thiophen-2-yl)-1H-tetrazol-1-yl)methyl)benzamide] | 15.7 | -1.5 | 28.1 | inhibition at […] (human PBMCs; [2]): 24.1%; inhibition at […] (human PBMCs; [3]): -33.1%; inhibition at […] (human PBMCs; [4]): 54.7%; inhibition at 0.5 µM (human PBMCs; [2]): 35.3%; inhibition at 0.5 µM (human PBMCs; [3]): -13%; inhibition at 0.5 µM (human PBMCs; [4]): 35.1%
2 | 5.76 | CN(C)c1cccc(-c2nnc(Sc3ccc(C(=O)NO)cc3)n2C)c1 [comp. 77, 4-[[5-[3-(dimethylamino)phenyl]-4-methyl-1,2,4-triazol-3-yl]sulfanyl]benzenecarbohydroxamic acid] | 32.1 | 34.3 | 64.2 | RS (relative T-reg suppression, AUC drug/AUC control) ([1]; concentration 1 μM): 2.4
3 | 6.02 | O=C(NO)c1ccc(Cn2nnc(-c3ccccc3F)n2)cc1 [comp. 33, 4-[[5-(2-fluorophenyl)tetrazol-2-yl]methyl]benzenecarbohydroxamic acid] |  |  |  | RS (relative T-reg suppression, AUC drug/AUC control) ([1]; concentration 0.10 μM): 4.6
4 | 6.07 | Cn1c(Sc2c(F)cc(C(=O)NO)cc2F)nnc1C(c1ccccc1)c1ccccc1 [comp. 98, 4-[(5-benzhydryl-4-methyl-1,2,4-triazol-3-yl)sulfanyl]-3,5-difluoro-benzenecarbohydroxamic acid] |  |  |  | 
5 | 6.29 | O=C(NO)c1cc(F)c(Cn2nnc(-c3scc4c3OCCO4)n2)c(F)c1 [comp. 79, 4-[[5-(2,3-dihydrothieno[3,4-b][1,4]dioxin-5-yl)tetrazol-2-yl]methyl]-3,5-difluoro-benzenecarbohydroxamic acid] | 27.5 | 38.6 | 50.9 | RS (relative T-reg suppression, AUC drug/AUC control) ([1]; concentration 1 μM): 1.7
6 | 6.48 | Nn1c(Sc2ccc(C(=O)NO)cc2)nnc1-c1ccc(OC(F)F)cc1 [comp. 28, 4-[[4-amino-5-[4-(difluoromethoxy)phenyl]-1,2,4-triazol-3-yl]sulfanyl]benzenecarbohydroxamic acid] |  |  |  | 
7 | 6.10 | O=C(NO)c1ccc(Cn2nnc(-c3cccs3)n2)cc1 [comp. 50, 4-[[5-(2-thienyl)tetrazol-2-yl]methyl]benzenecarbohydroxamic acid] |  |  |  | 
8 | 5.23 | COc1ccc(C(=O)N[C@@H](Cc2cscn2)c2nc(Cc3ccc(C(=O)NO)cc3)no2)cc1OC [comp. 1, (S)—N-(1-(3-(4-(hydroxycarbamoyl)benzyl)-1,2,4-oxadiazol-5-yl)-2-(thiazol-4-yl)ethyl)-3,4-dimethoxybenzamide] |  |  |  | 
9 | 5.57 | O=C(NO)c1ccc(Cn2nnc(-c3ccc(C(F)(F)F)cc3)n2)cc1 [comp. 23, 4-[[5-[4-(trifluoromethyl)phenyl]tetrazol-2-yl]methyl]benzenecarbohydroxamic acid] |  |  |  | 
10 | 6.23 | Cn1c(Sc2c(F)cc(C(=O)NO)cc2F)nnc1-c1cccc2ccccc12 [comp. 2, 3,5-difluoro-N-hydroxy-4-((4-methyl-5-(naphthalen-1-yl)-4H-1,2,4-triazol-3-yl)thio)benzamide] |  |  |  | 
11 | 6.37 | CN(C)c1cccc(-c2nnc(Sc3c(F)cc(C(=O)NO)cc3F)n2C)c1 [comp. 80, 4-[[5-[3-(dimethylamino)phenyl]-4-methyl-1,2,4-triazol-3-yl]sulfanyl]-3,5-difluoro-benzenecarbohydroxamic acid] |  |  |  | 
12 | 5.66 | O=C(NO)c1ccc(Cc2nnc(-c3ccc(F)cc3F)o2)cc1 [comp. 58, 4-((5-(2,4-difluorophenyl)-1,3,4-oxadiazol-2-yl)methyl)-N-hydroxybenzamide] |  |  |  | 
13 | 5.81 | CN(C)S(=O)(=O)c1cccc(-c2nnn(Cc3ccc(C(=O)NO)cc3)n2)c1 [comp. 59, 4-[[5-[3-(dimethylsulfamoyl)phenyl]tetrazol-2-yl]methyl]benzenecarbohydroxamic acid] |  |  |  | RS (relative T-reg suppression, AUC drug/AUC control) ([1]; concentration 0.5 μM): 4.8

Row | Structure (SMILES) | pIC50 (HDAC9) | inhibition at 1 µM (human PBMCs; [2]) [%] | inhibition at 1 µM (human PBMCs; [3]) [%] | inhibition at 1 µM (human PBMCs; [4]) [%] | also measured
14 | O=C(NO)c1cc(F)c(Cn2nnc(-c3ccco3)n2)c(F)c1 [comp. 19, 3,5-difluoro-4-((5-(furan-2-yl)-2H-tetrazol-2-yl)methyl)-N-hydroxybenzamide] | 6.23 | -7.85 | 4.62 | 25.9 | RS (relative T-reg suppression, AUC drug/AUC control) ([1]; concentration 1 μM): 2.3
15 | O=C(NO)c1cc(F)c(Cn2nnnc2-c2cccs2)c(F)c1 [comp. 15, 3,5-difluoro-N-hydroxy-4-((5-(thiophen-2-yl)-1H-tetrazol-1-yl)methyl)benzamide] | 6.18 | 21 | 22.9 | 33.9 | RS (relative T-reg suppression, AUC drug/AUC control) ([1]; concentration 1 μM): 3.0
16 | Cn1c(Sc2ccc(C(=O)NO)cc2)nnc1-c1cccs1 [comp. 10, N-hydroxy-4-((4-methyl-5-(thiophen-2-yl)-4H-1,2,4-triazol-3-yl)thio)benzamide] | 5.96 | 25.6 | 20.6 | 49.4 | 
17 | Cn1c(Sc2c(F)cc(C(=O)NO)cc2F)nnc1-c1cccs1 [comp. 17, 3,5-difluoro-N-hydroxy-4-((4-methyl-5-(thiophen-2-yl)-4H-1,2,4-triazol-3-yl)thio)benzamide] | 6.30 | 41.6 | 31.2 | 39.4 | 
